This is an account of results in PMC9186412, “Rational Framework for the Design of Trp- and Arg-Rich Peptide Antibiotics Against Multidrug-Resistant Bacteria” (Frontiers in Microbiology, 2022).

Where no end group is shown, it is not given here.

One data set deals with CD-1 mice. The data set can be described thus: Mouse toxicity, maximum tolerated dose (IV). The format is in vivo. On the procedure:
For all animal experiments, we used the protocol #18071776 approved by the Institutional Animal Care and Use Committee (IACUC) of the University of Pittsburgh, which is consistent with the NIH guide for the care and use of laboratory animals. In a preliminary (pilot) experiment, female CD-1 mice (three per group) weighing about 20 g were injected different doses of peptides up to 45mpk via a lateral tail vein (IV) to determine an MTD (dose that results in no apparent morbidity or mortality). To confirm the MTD determined in the pilot study, CD-1 mice (seven per group) were randomized to receive a dose based on the preliminary MTD (IV) or PBS (100 μL). The animals were monitored for up to 7 days for morbidity and survival.

The test system of data set [1] is human red blood cells (RBCs). The following applies: at 16 μM; ref de Breij et al., 2018; cited from earlier work.
For data set [2], the system named is ESKAPE pathogens and Escherichia coli. The following applies: ESKAPE pathogens and. On the procedure: Bacteria were incubated with each of the indicated peptides in MHB2. […] To assess bactericidal properties of the peptide, the assay was modified by using 15% fetal bovine serum (FBS, for a more physiologically relevant test condition) mixed with 25% MHB2 and 60% PBS. […] Data were analyzed using GraphPad Prism software.

With RRVWRWVRRVWRWVRR [E35], the % RBC lysis was found to be 22%. Also, in the data set on CD-1 mice (7 CD-1 mice, 30 mpk systemically, monitored up to 7 days), the morbidity and mortality entry was “no apparent morbidity and mortality”. The “tolerated systemic dose (maximum tolerated dose, MTD)” value with CD-1 mice (CD-1 mice, tail vein (IV), pilot with doses up to 45 mg/kg) is reported as “up to 30 mpk”. “Ac-LKRVWKRVFKLLKRYWRQLKKPVR-NH2 [SAAP-148]”: the RBC lysis result in data set [1] is on record as “moderate RBC lysis”. Regarding `CC(C)C[C@H](NC(=O)[C@H](Cc1ccccc1)NC(=O)[C@@H]1CCCN1C(=O)[C@H](Cc1c[nH]c2ccccc12)NC(=O)[C@H](Cc1c[nH]c2ccccc12)NC(=O)[C@H](Cc1c[nH]c2ccccc12)NC(=O)[C@@H]1CCCN1C(=O)[C@H](Cc1ccccc1)NC(=O)[C@H](CCCNC(=N)N)NC(=O)[C@H](CCCNC(=N)N)NC(=O)[C@@H](N)C(C)C)C(=O)N[C@@H](CCCNC(=N)N)C(=O)N[C@@H](CCCNC(=N)N)C(=O)O` [tritrpticin], in data set [2], the “mean MIC” value is over 10 µM.
